Measured values as given in paper PMC10924921, “Mi-2β promotes immune evasion in melanoma by activating EZH2 methylation” (Nature Communications, 2024).

How the values were obtained:
Test in all cases: biochemical
Parameters in all cases: KINOMEscan active-site competition binding panel (468 kinase assays), per cent of control at 1000 nM
Conditions in all cases: KINOMEscan per cent of control (binding competition); read-out: Percent Control
[1] = target: T1, ABL1(Y253F)-phosphorylated (Homo sapiens, UniProt P00519, Y253F)
T1 construct: phosphorylated
Text: (§1) Figure S7 / Percent Control

AURKC = AURKC (Homo sapiens, UniProt Q9UQB9)
Text: as §1

CASK = CASK (Homo sapiens, UniProt O14936)
Text: as §1

CDK3 = CDK3 (Homo sapiens, UniProt Q00526)
Text: as §1

CDK5 = CDK5 (Homo sapiens, UniProt Q00535)
Text: as §1

CDKL3 = CDKL3 (Homo sapiens, UniProt Q8IVW4)
Text: as §1

CHEK2 = CHEK2 (Homo sapiens, UniProt O96017)
Text: as §1

[2] = target: EGFR(L747-S752del, P753S) (Homo sapiens, UniProt P00533, DEL747-752/P753S)
Text: as §1

EPHB2 = EPHB2 (Homo sapiens, UniProt P29323)
Text: as §1

ERK8 = target: T2, ERK8 (Homo sapiens, UniProt Q8TD08)
T2 construct: gene MAPK15
Text: as §1

FGFR3(G697C) = FGFR3(G697C) (Homo sapiens, UniProt P22607, G697C)
Text: as §1

FLT3-autoinhibited = FLT3-autoinhibited (Homo sapiens, UniProt P36888)
Text: as §1

GRK4 = GRK4 (Homo sapiens, UniProt P32298)
Text: as §1

HUNK = HUNK (Homo sapiens, UniProt P57058)
Text: as §1

IRAK1 = IRAK1 (Homo sapiens, UniProt P51617)
Text: as §1

JNK2 = target: T3, JNK2 (Homo sapiens, UniProt P45984)
T3 construct: gene MAPK9
Text: as §1

LIMK1 = LIMK1 (Homo sapiens, UniProt P53667)
Text: as §1

MAP4K3 = MAP4K3 (Homo sapiens, UniProt Q8IVH8)
Text: as §1

MARK1 = MARK1 (Homo sapiens, UniProt Q9P0L2)
Text: as §1

[3] = target: T4, RSK1(Kin.Dom.1-N-terminal) (Homo sapiens, UniProt Q15418)
T4 construct: gene RPS6KA1; Kin.Dom.1-N-terminal
Text: as §1

SLK = SLK (Homo sapiens, UniProt Q9H2G2)
Text: as §1

STK35 = STK35 (Homo sapiens, UniProt Q8TDR2)
Text: as §1

ULK2 = ULK2 (Homo sapiens, UniProt Q8IYT8)
Text: as §1

ZAK = target: T5, ZAK (Homo sapiens, UniProt Q9NYL2)
T5 construct: gene MAP3K20
Text: as §1

CHEK2, sequence (O96017 whole entry): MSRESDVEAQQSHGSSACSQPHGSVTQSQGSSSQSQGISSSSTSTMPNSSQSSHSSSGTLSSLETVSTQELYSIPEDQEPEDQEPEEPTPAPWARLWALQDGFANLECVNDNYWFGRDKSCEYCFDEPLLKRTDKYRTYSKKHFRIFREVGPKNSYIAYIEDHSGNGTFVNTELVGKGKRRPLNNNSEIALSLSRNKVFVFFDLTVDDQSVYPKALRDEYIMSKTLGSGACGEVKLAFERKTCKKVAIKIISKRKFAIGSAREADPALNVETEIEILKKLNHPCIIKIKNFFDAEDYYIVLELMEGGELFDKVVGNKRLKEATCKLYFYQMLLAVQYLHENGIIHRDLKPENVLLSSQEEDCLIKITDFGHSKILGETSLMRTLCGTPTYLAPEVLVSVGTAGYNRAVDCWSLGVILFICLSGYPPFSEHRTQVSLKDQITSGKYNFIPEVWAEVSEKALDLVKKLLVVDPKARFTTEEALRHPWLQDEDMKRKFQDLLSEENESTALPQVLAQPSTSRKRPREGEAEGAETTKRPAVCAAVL
MAP4K3, sequence (Q8IVH8 whole entry): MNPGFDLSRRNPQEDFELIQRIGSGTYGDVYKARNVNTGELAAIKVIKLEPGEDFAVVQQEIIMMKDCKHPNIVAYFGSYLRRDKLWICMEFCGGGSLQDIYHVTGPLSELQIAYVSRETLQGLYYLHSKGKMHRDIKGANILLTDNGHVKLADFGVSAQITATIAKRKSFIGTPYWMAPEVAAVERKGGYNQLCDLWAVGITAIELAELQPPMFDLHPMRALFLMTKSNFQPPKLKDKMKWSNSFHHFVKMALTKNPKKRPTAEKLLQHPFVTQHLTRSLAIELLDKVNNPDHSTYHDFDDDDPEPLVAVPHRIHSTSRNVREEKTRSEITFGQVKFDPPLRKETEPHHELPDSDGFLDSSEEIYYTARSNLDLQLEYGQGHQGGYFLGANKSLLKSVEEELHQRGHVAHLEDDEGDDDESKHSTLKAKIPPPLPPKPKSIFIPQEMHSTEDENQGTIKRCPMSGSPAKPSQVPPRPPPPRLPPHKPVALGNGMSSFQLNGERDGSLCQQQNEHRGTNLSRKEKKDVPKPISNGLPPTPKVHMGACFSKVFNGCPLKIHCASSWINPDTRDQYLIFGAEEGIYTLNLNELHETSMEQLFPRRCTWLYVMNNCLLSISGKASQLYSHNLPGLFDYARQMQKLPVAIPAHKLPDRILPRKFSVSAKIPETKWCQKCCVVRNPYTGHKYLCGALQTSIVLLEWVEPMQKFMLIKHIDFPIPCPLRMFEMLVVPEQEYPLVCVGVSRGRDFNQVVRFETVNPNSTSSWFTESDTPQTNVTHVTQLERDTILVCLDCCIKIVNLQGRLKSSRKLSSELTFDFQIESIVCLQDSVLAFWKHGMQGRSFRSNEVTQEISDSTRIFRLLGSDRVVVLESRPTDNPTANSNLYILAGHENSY
CDK5, sequence (Q00535 whole entry): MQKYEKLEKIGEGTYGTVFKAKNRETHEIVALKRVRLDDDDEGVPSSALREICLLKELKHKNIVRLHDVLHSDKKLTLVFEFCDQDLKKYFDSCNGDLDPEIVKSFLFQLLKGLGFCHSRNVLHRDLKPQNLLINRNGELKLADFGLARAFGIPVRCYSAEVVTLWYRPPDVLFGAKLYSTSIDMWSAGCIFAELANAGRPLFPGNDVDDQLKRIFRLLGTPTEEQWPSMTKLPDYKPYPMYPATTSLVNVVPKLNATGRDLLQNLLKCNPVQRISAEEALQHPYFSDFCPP
CDK3, sequence (Q00526 whole entry): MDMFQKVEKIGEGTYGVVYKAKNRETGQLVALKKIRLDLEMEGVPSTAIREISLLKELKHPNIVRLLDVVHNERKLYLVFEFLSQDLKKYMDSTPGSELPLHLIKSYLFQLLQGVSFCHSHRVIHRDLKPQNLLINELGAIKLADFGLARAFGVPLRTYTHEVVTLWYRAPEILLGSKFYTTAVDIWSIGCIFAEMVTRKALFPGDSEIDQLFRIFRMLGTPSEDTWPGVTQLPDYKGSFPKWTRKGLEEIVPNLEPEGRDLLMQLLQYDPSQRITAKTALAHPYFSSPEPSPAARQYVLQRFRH
LIMK1, sequence (P53667 whole entry): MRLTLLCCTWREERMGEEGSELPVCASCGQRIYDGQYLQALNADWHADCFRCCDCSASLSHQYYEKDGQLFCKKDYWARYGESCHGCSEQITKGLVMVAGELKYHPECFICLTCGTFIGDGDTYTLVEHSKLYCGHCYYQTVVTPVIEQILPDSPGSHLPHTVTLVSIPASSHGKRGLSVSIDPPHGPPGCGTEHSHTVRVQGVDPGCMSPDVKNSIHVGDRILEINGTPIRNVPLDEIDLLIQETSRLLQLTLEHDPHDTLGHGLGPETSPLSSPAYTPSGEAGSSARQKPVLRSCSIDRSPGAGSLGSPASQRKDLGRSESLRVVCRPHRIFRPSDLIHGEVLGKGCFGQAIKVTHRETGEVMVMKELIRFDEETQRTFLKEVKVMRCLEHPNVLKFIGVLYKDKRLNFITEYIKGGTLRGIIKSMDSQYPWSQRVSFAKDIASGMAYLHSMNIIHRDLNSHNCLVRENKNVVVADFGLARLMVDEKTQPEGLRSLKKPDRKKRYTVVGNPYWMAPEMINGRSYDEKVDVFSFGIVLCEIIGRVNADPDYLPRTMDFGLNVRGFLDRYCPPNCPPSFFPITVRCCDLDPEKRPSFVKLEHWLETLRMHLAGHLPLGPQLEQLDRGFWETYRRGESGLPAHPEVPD
CDKL3, sequence (Q8IVW4 whole entry): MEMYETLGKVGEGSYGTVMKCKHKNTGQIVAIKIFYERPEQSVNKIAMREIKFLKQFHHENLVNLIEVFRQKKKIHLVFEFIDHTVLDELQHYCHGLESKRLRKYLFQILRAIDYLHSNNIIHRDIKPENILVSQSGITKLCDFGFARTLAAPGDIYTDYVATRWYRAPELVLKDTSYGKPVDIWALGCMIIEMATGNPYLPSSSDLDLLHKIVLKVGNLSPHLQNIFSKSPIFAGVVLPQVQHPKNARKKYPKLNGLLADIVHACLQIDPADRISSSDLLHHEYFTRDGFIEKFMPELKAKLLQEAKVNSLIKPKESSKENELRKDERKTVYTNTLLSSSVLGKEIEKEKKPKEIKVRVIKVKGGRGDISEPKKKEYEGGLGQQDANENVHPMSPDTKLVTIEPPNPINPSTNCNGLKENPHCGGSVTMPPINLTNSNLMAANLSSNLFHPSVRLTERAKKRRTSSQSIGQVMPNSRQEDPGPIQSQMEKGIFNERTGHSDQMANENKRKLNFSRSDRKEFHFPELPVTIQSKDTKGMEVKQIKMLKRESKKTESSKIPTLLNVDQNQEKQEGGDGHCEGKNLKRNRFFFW
GRK4, sequence (P32298 whole entry): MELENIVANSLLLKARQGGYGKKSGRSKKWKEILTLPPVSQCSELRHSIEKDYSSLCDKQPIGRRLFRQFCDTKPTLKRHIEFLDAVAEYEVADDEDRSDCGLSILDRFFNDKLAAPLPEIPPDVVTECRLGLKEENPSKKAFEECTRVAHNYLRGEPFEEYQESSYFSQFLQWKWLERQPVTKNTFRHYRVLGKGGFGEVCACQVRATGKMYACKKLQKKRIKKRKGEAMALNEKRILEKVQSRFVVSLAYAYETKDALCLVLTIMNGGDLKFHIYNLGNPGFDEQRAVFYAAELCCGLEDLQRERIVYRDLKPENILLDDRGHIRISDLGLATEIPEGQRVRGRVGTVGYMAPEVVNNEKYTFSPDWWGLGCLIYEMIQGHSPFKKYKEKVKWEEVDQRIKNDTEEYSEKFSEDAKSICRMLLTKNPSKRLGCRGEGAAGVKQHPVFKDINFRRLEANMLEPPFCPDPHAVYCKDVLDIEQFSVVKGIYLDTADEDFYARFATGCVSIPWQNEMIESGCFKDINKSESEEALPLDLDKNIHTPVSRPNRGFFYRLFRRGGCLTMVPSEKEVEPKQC
EPHB2, sequence (P29323 whole entry): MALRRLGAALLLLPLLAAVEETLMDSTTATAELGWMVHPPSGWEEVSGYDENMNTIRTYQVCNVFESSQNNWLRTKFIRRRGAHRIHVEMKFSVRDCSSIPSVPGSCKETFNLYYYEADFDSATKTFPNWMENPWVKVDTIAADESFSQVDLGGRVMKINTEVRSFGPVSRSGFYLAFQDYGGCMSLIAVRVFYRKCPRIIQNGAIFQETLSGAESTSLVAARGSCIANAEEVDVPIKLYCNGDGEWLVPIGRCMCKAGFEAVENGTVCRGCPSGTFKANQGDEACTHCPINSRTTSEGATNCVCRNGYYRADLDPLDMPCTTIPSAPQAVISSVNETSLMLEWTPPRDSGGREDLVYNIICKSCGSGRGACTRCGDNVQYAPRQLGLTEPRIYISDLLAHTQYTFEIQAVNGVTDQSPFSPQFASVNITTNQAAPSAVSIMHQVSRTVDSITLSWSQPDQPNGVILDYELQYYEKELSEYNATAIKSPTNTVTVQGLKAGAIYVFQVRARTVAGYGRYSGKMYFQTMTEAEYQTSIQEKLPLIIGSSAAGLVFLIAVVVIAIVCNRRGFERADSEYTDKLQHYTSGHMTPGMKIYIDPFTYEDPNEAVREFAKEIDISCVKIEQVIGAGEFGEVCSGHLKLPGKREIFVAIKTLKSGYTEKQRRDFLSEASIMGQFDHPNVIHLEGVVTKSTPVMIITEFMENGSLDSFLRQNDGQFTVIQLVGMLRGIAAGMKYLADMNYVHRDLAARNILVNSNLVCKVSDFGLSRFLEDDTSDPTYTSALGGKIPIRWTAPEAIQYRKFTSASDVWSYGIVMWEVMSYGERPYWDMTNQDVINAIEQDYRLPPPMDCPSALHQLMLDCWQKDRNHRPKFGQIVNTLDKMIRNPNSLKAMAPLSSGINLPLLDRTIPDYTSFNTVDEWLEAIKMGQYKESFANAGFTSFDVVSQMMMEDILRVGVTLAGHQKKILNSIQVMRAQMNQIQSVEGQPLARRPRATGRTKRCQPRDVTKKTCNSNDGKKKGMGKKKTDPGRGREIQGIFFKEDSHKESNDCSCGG

SMILES: Cn1c(=O)[nH]c2ccc(-c3cccc(C(=O)NC4CCn5ccnc5C4)c3)cc21 (stereo not drawn) [Z36-MP5]
- remaining binding at 1 µM [1]: 72%
- remaining binding at 1 µM (AURKC): 100%
- remaining binding at 1 µM (CASK): 60%
- remaining binding at 1 µM (CDK3): 43%
- remaining binding at 1 µM (CDK5): 55%
- remaining binding at 1 µM (CDKL3): 59%
- remaining binding at 1 µM (CHEK2): 58%
- remaining binding at 1 µM [2]: 51%
- remaining binding at 1 µM (EPHB2): 70%
- remaining binding at 1 µM (ERK8): 83%
- remaining binding at 1 µM (FGFR3(G697C)): 49%
- remaining binding at 1 µM (FLT3-autoinhibited): 51%
- remaining binding at 1 µM (GRK4): 52%
- remaining binding at 1 µM (HUNK): 74%
- remaining binding at 1 µM (IRAK1): 80%
- remaining binding at 1 µM (JNK2): 54%
- remaining binding at 1 µM (LIMK1): 85%
- remaining binding at 1 µM (MAP4K3): 51%
- remaining binding at 1 µM (MARK1): 92%
- remaining binding at 1 µM [3]: 93%
- remaining binding at 1 µM (SLK): 100%
- remaining binding at 1 µM (STK35): 81%
- remaining binding at 1 µM (ULK2): 59%
- remaining binding at 1 µM (ZAK): 95%
